Data: US20250339391A1, “METHODS FOR EFFECTIVE MANAGEMENT OF PAIN” (South Rampart Pharma, Inc., priority 2024, published 2025)

Test: LC-MS/MS detection of D10-SRP-001 in rat brain (PAG)
Assay type: in vivo
Settings: 30 min after IP injection
Description: Deuterated compound D10-SRP-001 was synthesized by Olon Ricerca Bioscience (Concord, OH), and purity was determined to be >99.9% by HPLC. This was used as pure analytical standard for detection of SRP-001 using an LC-MS/MS method. Similarly, pure analytical standard of AM404 (10 ng/mL) obtained from Cayman Chemical (Ann Arbor, MI) was used to characterize the full fragmentation pattern of AM404. […] Thirty min post-injection, the animals were sacrificed (same as in the CFA/von Frey model), their brains harvested, and the midbrain periaqueductal gray (PAG) region excised. SRP-001 or AM404 were extracted from the PAG using a liquid-liquid extraction method using 1:1 MeOH:H2O for LC-MS/MS and were loaded onto a liquid chromatography-tandem mass spectrophotometer for analysis. The mass spectrophotometer was operated in multiple reaction monitoring (MRM) mode using positive ion electrospray. D10-SRP-001 was detected by monitoring the m/z transition 416→186. AM404 was detected by monitoring the m/z transition 396→287.

[2H]C([2H])([2H])C([2H])([2H])N(C(=O)c1ccccc1S(=O)(=O)NCC(=O)Nc1ccc(O)cc1)C([2H])([2H])C([2H])([2H])[2H] [D10-SRP-001]
detection in the brain: detected in the brain
